US12466807B2, “Salt and crystal form of a FAK inhibitor” (Amplia Therapeutics Limited, priority 2019, dated 2025)
In brackets after ≈: the same amount, converted by molar mass. Where two headings read alike, the source gives them in different places. Each block holds one compound with its values, some of them ahead of it.

Assays:
[1] = Oral exposure (pharmacokinetics) in rats; format: in vivo, male Sprague Dawley rats; conditions: rat
Procedure: To compare the exposure of the compound of Formula I in male Sprague Dawley rats following oral administration of the free base and L-tartrate salt at a target dose of 20 mg/kg (as free base equivalent).
Further details of the in-life, formulation and bioanalytical procedures together with the data analysis, are described in Appendix 1.
In-Life • The exposure of Formula I was studied in overnight-fasted male Sprague Dawley rats that had access to water ad libitum throughout the pre- and post-dose sampling period, and access to food was re-instated 4 h post-dose. In-life details are provided in Table A1-1. • Samples of arterial blood and total urine were collected up to 48 h post-dose. Arterial blood was collected directly into borosilicate vials (at 4° C.) containing heparin, Complete® (a protease inhibitor cocktail) and potassium fluoride to minimise potential for ex vivo degradation of Formula I in blood/plasma samples. Once collected, blood samples were centrifuged, supernatant plasma was removed and stored frozen (−80° C.) until analysis by LC-MS.
The extraction of the test compound from plasma samples was conducted using protein precipitation with acetonitrile. Both solution and plasma standards were freshly prepared, with each set of standards comprising at least seven different analyte concentrations. Solution standards were diluted from a stock solution (1 mg/mL in DMSO) with 50% acetonitrile in water. Plasma standards were prepared by spiking blank plasma (50 μL) with solution standards (10 μL) and the internal standard, diazepam (10 μL, 5 μg/mL).
Plasma samples were similarly prepared, except that blank acetonitrile (10 μL) was added instead of solution standards. Protein precipitation was carried out by the addition of acetonitrile (120 μL), vortexing (20 s) and centrifugation (10,000 rpm) in a microcentrifuge for 3 minutes. The supernatant was subsequently separated and 3 μL injected directly onto the column for LC/MS analysis using conditions tabulated below. All plasma concentrations are expressed as the non-salt equivalent.
Standard Calculations • Plasma concentration versus time data were analysed using non-compartmental methods (PKSolver Version 2.0). Standard calculations for each pharmacokinetic parameter are listed below.
(§1) [formula] • AUCIV Area under the plasma concentration versus time profile from time zero to infinity after IV administration (reported previously: CDCO_FAK_11_031) • t1/2 Elimination half-life • λ2 Terminal elimination rate constant after IV administration • BA Oral bioavailability • AUCoral Area under the plasma concentration versus time profile from time zero to infinity after oral administration • Cmax Maximum plasma concentration observed after oral administration. • Tmax Time to achieve Cmax • Differences in pharmacokinetic parameters (t½, AUC, Cmax, Tmax and BA) between free base and L-tartrate salt were evaluated using an unpaired t-test testing for significance at α=0.05 (GraphPad Prism, version 7.01)

[2] = Dynamic/gravimetric vapour sorption (DVS/GVS) hygroscopicity; format: physicochemical; conditions: at 90% R.H., 25° C.
Procedure: Approximately 10-20 mg of sample was placed into a mesh vapour sorption balance pan and loaded into the DVS-1 dynamic vapour sorption balance by Surface Measurement Systems. The sample was subjected to a ramping profile from 40-90% relative humidity (RH) at 10% increments, maintaining the sample at each step until a stable weight had been achieved (dm/dt 0.004%, minimum step length 30 minutes, maximum step length 500 minutes) at 25° C. After completion of the sorption cycle, the sample was dried using the same procedure to 0% RH and then a second sorption cycle back to 40% RH. Two cycles were performed. The weight change during the sorption/desorption cycles were plotted, allowing for the hygroscopic nature of the sample to be determined. XRPD analysis was then carried out on any solid retained.
Approximately 10-20 mg of sample was placed into a mesh vapour sorption balance pan and loaded into an IGASorp Moisture Sorption Analyser balance by Hiden Analytical. The sample was subjected to a ramping profile from 40-90% relative humidity (RH) at 10% increments, maintaining the sample at each step until a stable weight had been achieved (98% step completion, minimum step length 30 minutes, maximum step length 60 minutes) at 25° C. After completion of the sorption cycle, the sample was dried using the same procedure to 0% RH, and finally taken back to the starting point of 40% RH. Two cycles were performed. The weight change during the sorption/desorption cycles were plotted, allowing for the hygroscopic nature of the sample to be determined.

[3] = Thermodynamic solubility studies; format: physicochemical; conditions: for solubility thermodynamic at 24 h: buffer, 22 °C, thermodynamic from solid; for HPLC Conc: ca. 22° C.
Procedure: Thermodynamic Solubility Studies were carried out as follows: • Approximately 10 mg of Formula I free base Pattern 1 and L-tartrate Pattern 1, were weighed into a 1.5 mL screw-cap vial. The appropriate buffer system was added to create a slurry and the vials were shaken at ambient temperature (ca. 22° C.) for approximately 24 hours. • After this time, the slurries were transferred to centrifuge tubes containing nylon filters (0.22 μm) and filtered using a centrifuge for ca. 10 minutes. The isolated solids were then analyzed by XRPD and the filtrates measured by a pH meter and analyzed by HPLC for concentration.

[4] = Salt disproportionation studies; format: physicochemical
Procedure: Salt disproportionation studies were carried out as follows: • Approximately 10-20 mg of Formula I free base, L-tartrate Pattern 1 were weighed into HPLC vials. • 1 mL deionized water was then added to each vial and the vials capped and shaken at ambient temperature for 24 hours. • After this time, the samples were transferred to centrifuge tubes with nylon filters (0.22 μm) and centrifuged for approximately 15 minutes. The isolated solids were analyzed by XRPD and the filtrates analyzed by HPLC for concentration determination and the pH of all the filtrates were measured with a pH meter.

[5] = IV pharmacokinetics in rats (reported previously); format: in vivo, male Sprague Dawley rats; conditions: IV 4.48 mg/kg, rat
Source text: as §1

[6] = PO 20 mg/kg (free base equivalent), mean ± SD, n = 3, 20 mg/kg

- BA [1, 6]: 48.6 ± 9.2%
- Tmax [1, 6]: 5.0 ± 0.0 h
- % Dose in urine (unchanged Formula I) ([1]; PO 20 mg/kg, pooled urine up to 48 h, 20 mg/kg): 0.208 ± 0.24%
- Cmax ([1]; male, Sprague Dawley, plasma, po, 20 mg/kg, PO 20 mg/kg (free base equivalent), mean ± SD, n = 3): 934 ± 260 nM
- half-life ([1]; male, Sprague Dawley, plasma, po, 20 mg/kg, PO 20 mg/kg (free base equivalent), mean ± SD, n = 3, read-out: Apparent t1/2 (converted)): 5.6 ± 0.1 h
- AUC(0-inf) ([1]; male, Sprague Dawley, plasma, po, 20 mg/kg, PO 20 mg/kg (free base equivalent), mean ± SD, n = 3, read-out: Plasma AUC0-inf): 9.93 ± 1.9 µM·h
- Tmax ([1]; male, Sprague Dawley, plasma, po, 20 mg/kg, PO 20 mg/kg (free base equivalent), mean ± SD, n = 3, read-out: Tmax): 5 to 7 h
- N-demethylation metabolite of Formula I ([1]; plasma and urine after PO 20 mg/kg, not quantified): detected in plasma and urine
- Hygroscopicity, mass uptake (DVS/GVS) [2]: Uptake of 5 wt %
- Thermodynamic Solubility ([3]; Water): <100 µg/mL
- pH Post-24 h Slurry ([3]; Water): 5.63
- solubility thermodynamic at 24 h ([3]; pH 1, simulated gastric fluid, pH 1.0): 300 µg/mL (≈ 569 µM)
- solubility thermodynamic at 24 h ([3]; pH 6.8, aqueous buffer, pH 6.8): < 100 µg/mL
- pH Post-24 h Slurry ([3]; pH 1.0): 1.37
- HPLC Conc ([3]; pH 1.0, 24 h slurry): 0.3 mg/mL
- XRPD Result ([3]; pH 1.0, solid after 24 h slurry, listed as Free Base): Possible HCl Salt
- XRPD Result ([3]; pH 1.0, solid after 24 h slurry, listed as free base): possible HCl salt
- Thermodynamic Solubility ([3]; pH 4.5): 11900 µg/mL
- pH Post-24 h Slurry ([3]; pH 4.5): 5.60
- HPLC Conc ([3]; pH 4.5, 24 h slurry): 11.9 mg/mL
- HPLC Conc ([3]; pH 4.5, 24 h slurry, listed as Formula I free base): 11.9 mg/mL
- XRPD Result ([3]; pH 4.5, solid after 24 h slurry): Free Base
- pH Post-24 h Slurry ([3]; pH 6.8): 7.44
- HPLC Conc ([3]; pH 6.8, 24 h slurry, listed as Free Base): <0.1 mg/mL
- HPLC Conc ([3]; pH 6.8, 24 h slurry, listed as free base): < 0.1 mg/mL
- XRPD Result ([3]; pH 6.8, solid after 24 h slurry): Alternate crystalline form
- XRPD Result ([3]; pH 6.8, solid after 24 h slurry, listed as Formula I free base): change in XRPD pattern
- HPLC Conc ([3]; water, 24 h slurry): <0.1 mg/mL
- HPLC Conc ([3]; water, 24 h slurry, listed as Formula I free base): < 0.1 mg/mL
- XRPD Result ([3]; water, solid after 24 h slurry): Free Base
- Water pH Post-24 h ([4]; deionized water, 24 h, ambient temperature): 5.63
- XRPD Result ([4]; solid after 24 h in deionized water): Free Base
SMILES: COc1cc(C2CCN(C)CC2)ccc1Nc1ncc(C(F)(F)F)c(CCc2ccccc2CC(N)=O)n1 [Free base]
- Adverse reactions or compound-related side effects ([1]; PO 20 mg/kg, 48 h sampling period): No adverse reactions or compound-related side effects were observed

- % Dose in urine (unchanged Formula I) ([5]; pooled urine up to 24 h): 1.14%
- half-life ([5]; male, Sprague Dawley, plasma, mean of n = 2, read-out: Apparent t1/2 (converted)): 4.8 h
- AUC(0-inf) ([5]; male, Sprague Dawley, plasma, mean of n = 2, read-out: Plasma AUC0-inf): 4.57 µM·h
SMILES: COc1cc(C2CCN(C)CC2)ccc1Nc1ncc(C(F)(F)F)c(CCc2ccccc2CC(N)=O)n1 [Formula I]
